System: Plasmodium berghei
Experiment: Luciferase/luciferin-expressing antifolate-resistant parasites were used to infect a culture of HepG2 cells that were pre-incubated with compounds. Infected hepatocytes emit light due to the luciferase reaction. Assay results are presented as the percent inhibition of light emission compared to control. […]
Format: functional
Conditions: sporozoite; for IC90: read-out: LUCIFERASE INFECTION ASSAY - IC90
[1] = read-out: LUCIFERASE INFECTION ASSAY - IC50

| SMILES | IC90 | also measured |
| --- | --- | --- |
| CCOC(=O)c1sc(NC(=O)c2ccc([N+](=O)[O-])s2)nc1C | 3.85 µM | IC50 (PBLUC_HILL_SLOPE 17.3, PBLUC_R_SQUARED 0.599, read-out: LUCIFERASE INFECTION ASSAY - IC50): 3.39 µM |
| COc1ccc(OC)c(Cn2cc(Br)ccc2=O)c1 | > 10 µM | IC50 (HEPG2TOX_HILL_SLOPE 10.1, HEPG2TOX_R_SQUARED 0.0663, read-out: LUCIFERASE INFECTION ASSAY - IC50): > 10 µM |
| CC(C)CN1CCC1(C(=O)Nc1ccncc1)c1ccccc1 (centres undefined) | 6.57 µM | IC50 (HEPG2TOX_HILL_SLOPE 0.888, HEPG2TOX_R_SQUARED 0.951, PBLUC_HILL_SLOPE 1.36, PBLUC_R_SQUARED 0.753, read-out: LUCIFERASE INFECTION ASSAY - IC50): 1.31 µM |
| O=C(Nc1ccc(F)c(Cl)c1)c1ccccc1O | > 12.4 µM | IC50 [1]: > 12.4 µM |
| CSc1nnc(-c2ccc(C(C)(C)C)cc2)n1C | > 12.6 µM | IC50 [1]: > 12.6 µM |
| Cc1cccc(C(=O)Nc2nc3ccc(C)cn3c2C(=O)NCC(C)C)c1 | 3.75 µM | IC50 (HEPG2TOX_HILL_SLOPE 9.43, HEPG2TOX_R_SQUARED 0.373, PBLUC_HILL_SLOPE 11.3, PBLUC_R_SQUARED 0.193, read-out: LUCIFERASE INFECTION ASSAY - IC50): 3.09 µM |
| CC(=N\Nc1ccc(F)cc1)/C(=N/O)C(=O)Nc1ccccc1 | > 10.5 µM | IC50 [1]: > 10.5 µM |
| COc1ccc(S(=O)(=O)Nc2ccccc2C(=O)NNC(=O)c2ccccc2O)cc1 | 4.69 µM | IC50 (HEPG2TOX_HILL_SLOPE 4.15, HEPG2TOX_R_SQUARED 0.834, PBLUC_HILL_SLOPE 17, PBLUC_R_SQUARED 0.564, read-out: LUCIFERASE INFECTION ASSAY - IC50): 4.12 µM |
| O=C(c1ccccc1)c1cc(-c2nc3ccccc3[nH]2)c(-c2ccccc2)n2c1nc1ccccc12 | > 10 µM | IC50 (FFLUC_HILL_SLOPE 3.37, FFLUC_R_SQUARED 0.587, PBLUC_HILL_SLOPE 3.5, PBLUC_R_SQUARED 0.455, read-out: LUCIFERASE INFECTION ASSAY - IC50): 6.85 µM |
| Cc1sc(NC(=O)c2ccc(Cn3cncn3)cc2)nc1-c1ccc(Br)cc1 | > 10 µM | IC50 (HEPG2TOX_HILL_SLOPE 2.39, HEPG2TOX_R_SQUARED 0.794, PBLUC_HILL_SLOPE 2.3, PBLUC_R_SQUARED 0.342, read-out: LUCIFERASE INFECTION ASSAY - IC50): > 10 µM |
| Cc1ccc(S(=O)(=O)N2CCC(C(=O)Nc3nnc(-c4ccc(Cl)cc4)o3)CC2)c(C)c1 | > 10 µM | IC50 [1]: > 10 µM |
| CCC(=O)Nc1nc(C)c(-c2csc(Nc3ccc(N(C)C)cc3)n2)s1 | > 8.52 µM | IC50 (FFLUC_HILL_SLOPE 5.2, FFLUC_R_SQUARED 0.393, read-out: LUCIFERASE INFECTION ASSAY - IC50): > 8.52 µM |
| Cn1c(Oc2cccc3c2OC(C)(C)C3)c(C#N)c(=O)n(C)c1=O | 0.188 µM | IC50 (PBLUC_HILL_SLOPE 0.981, PBLUC_R_SQUARED 0.556, read-out: LUCIFERASE INFECTION ASSAY - IC50): 0.02 µM |
| Cn1c(NCc2ccccc2)nc2cnc(Nc3cccc(Oc4ccccc4)c3)cc21 | 3.9 µM | IC50 (HEPG2TOX_HILL_SLOPE 16.8, HEPG2TOX_R_SQUARED 0.905, PBLUC_HILL_SLOPE 16.2, PBLUC_R_SQUARED 0.526, read-out: LUCIFERASE INFECTION ASSAY - IC50): 3.4 µM |
| CC(C)Cc1ccc(C(=O)CC2OC(=O)c3ccccc32)cc1 (centres undefined) | > 10.7 µM | IC50 (FFLUC_HILL_SLOPE 1.52, FFLUC_R_SQUARED 0.66, PBLUC_HILL_SLOPE 3.96, PBLUC_R_SQUARED 0.504, read-out: LUCIFERASE INFECTION ASSAY - IC50): 8.38 µM |
| CCOC(=O)CSCc1noc(COc2ccc(Cl)cc2Cl)n1 | 0.26 µM | IC50 (PBLUC_HILL_SLOPE 0.923, PBLUC_R_SQUARED 0.877, read-out: LUCIFERASE INFECTION ASSAY - IC50): 0.0241 µM |
| CCOC(=O)c1c(/C=C/C(=O)Nc2nc(C)cs2)c(C)n(CC)c1C | > 10 µM | IC50 (PBLUC_HILL_SLOPE 0.644, PBLUC_R_SQUARED 0.0145, read-out: LUCIFERASE INFECTION ASSAY - IC50): > 10 µM |
| CCc1ccc(S(=O)(=O)N2[C@@H]3CC[C@@H](C3)[C@H]2c2nc3c(OC(C)C)cccc3[nH]2)cc1 | > 10 µM | IC50 (HEPG2TOX_HILL_SLOPE 3.46, HEPG2TOX_R_SQUARED 0.87, PBLUC_HILL_SLOPE 16.2, PBLUC_R_SQUARED 0.535, read-out: LUCIFERASE INFECTION ASSAY - IC50): 9.38 µM |
| Cc1occc1C(=O)Nc1ccc(Cl)c(C(F)(F)F)c1 | > 10 µM | IC50 (PBLUC_HILL_SLOPE 1.47, PBLUC_R_SQUARED 0.656, read-out: LUCIFERASE INFECTION ASSAY - IC50): 6.43 µM |
| CNS(=O)(=O)c1ccc(NC(=O)c2ccc3[nH]c(C)c(C)c3c2)cc1 | > 10 µM | IC50 [1]: > 10 µM |
| CCn1nnnc1Sc1ncnc2scc(-c3ccc(C)cc3)c12 | > 10 µM | IC50 [1]: > 10 µM |

| SMILES | IC90 | also measured |
| --- | --- | --- |
| O=C(COc1ccc(C23CC4CC(CC(C4)C2)C3)cc1)N1CCCC1 | 2.75 µM | IC50 (PBLUC_HILL_SLOPE 2.17, PBLUC_R_SQUARED 0.715, read-out: LUCIFERASE INFECTION ASSAY - IC50): 1 µM |
| Cc1noc(C)c1C(=O)Nc1nc(-c2c[nH]c3ccccc23)cs1 | > 10 µM | IC50 [1]: > 10 µM |
| CCCn1c(NC(=O)C2CCN(S(=O)(=O)c3cccc(Cl)c3Cl)CC2)nc2ccccc21 | 6.16 µM | IC50 (HEPG2TOX_HILL_SLOPE 3.25, HEPG2TOX_R_SQUARED 0.759, PBLUC_HILL_SLOPE 100, PBLUC_R_SQUARED 0.016, read-out: LUCIFERASE INFECTION ASSAY - IC50): 6.02 µM |
| Clc1ccc(-c2cnc3cnc(-c4ccc(NCCN5CCOCC5)nc4)cn23)cc1 | 7.4 µM | IC50 (HEPG2TOX_HILL_SLOPE 7.91, HEPG2TOX_R_SQUARED 0.577, PBLUC_HILL_SLOPE 49, PBLUC_R_SQUARED 0.381, read-out: LUCIFERASE INFECTION ASSAY - IC50): 7.08 µM |
| COc1ccc(C(CNC(=O)c2cc3c(C)nn(-c4ccc(Cl)cc4)c3s2)N(C)C)cc1 (centres undefined) | 4.14 µM | IC50 (PBLUC_HILL_SLOPE 12.4, PBLUC_R_SQUARED 0.574, read-out: LUCIFERASE INFECTION ASSAY - IC50): 3.47 µM |
| CC1CC1c1ccc(/C=C/C(=O)NNC(=S)NCC2CCCO2)o1 (centres undefined) | 3.79 µM | IC50 (HEPG2TOX_HILL_SLOPE 2.34, HEPG2TOX_R_SQUARED 0.989, PBLUC_HILL_SLOPE 14.4, PBLUC_R_SQUARED 0.432, read-out: LUCIFERASE INFECTION ASSAY - IC50): 3.25 µM |
| CC(C)n1ncc2cc(C(=O)Nc3nnc(-c4ccccn4)[nH]3)cnc21 | > 10 µM | IC50 (PBLUC_HILL_SLOPE 1.86, PBLUC_R_SQUARED 0.0303, read-out: LUCIFERASE INFECTION ASSAY - IC50): 6.07 µM |
| Cc1oc2c(c1C(=O)N1CCN(c3ccc(F)cc3)CC1)C(=O)c1ccccc1C2=O | > 10 µM | IC50 (PBLUC_HILL_SLOPE 2.38, PBLUC_R_SQUARED 0.395, read-out: LUCIFERASE INFECTION ASSAY - IC50): 4.13 µM |
| COc1ccc(C(=O)N2CCN(c3ncnc4cc(Cl)ccc34)CC2)cc1 | > 10 µM | IC50 (HEPG2TOX_HILL_SLOPE 0.344, HEPG2TOX_R_SQUARED 0.575, PBLUC_HILL_SLOPE 18.9, PBLUC_R_SQUARED 0.0549, read-out: LUCIFERASE INFECTION ASSAY - IC50): 9.92 µM |
| Cc1csc(NC(=O)Nc2cc(C(F)(F)F)cc(C(F)(F)F)c2)c1 | 3.4 µM | IC50 (HEPG2TOX_HILL_SLOPE 15.4, HEPG2TOX_R_SQUARED 0.694, PBLUC_HILL_SLOPE 2.82, PBLUC_R_SQUARED 0.474, read-out: LUCIFERASE INFECTION ASSAY - IC50): 1.56 µM |
| O=C(OCc1csc(-c2ccccc2)n1)c1cc([N+](=O)[O-])ccc1N1CCC(Cc2ccccc2)CC1 | > 10 µM | IC50 (HEPG2TOX_HILL_SLOPE 3.49, HEPG2TOX_R_SQUARED 0.926, PBLUC_HILL_SLOPE 12.2, PBLUC_R_SQUARED 0.465, read-out: LUCIFERASE INFECTION ASSAY - IC50): 8.99 µM |
| O=C(COc1ccccc1C(=O)NCc1ccccc1)NC(c1ccc(F)cc1)c1cccs1 (centres undefined) | > 10 µM | IC50 [1]: 8.41 µM |
| CC(C)c1ccc(-c2nnc(NC(=O)CNC(=O)c3cccc(S(=O)(=O)N(C)C)c3)s2)cc1 | > 10 µM | IC50 (PBLUC_HILL_SLOPE 2.11, PBLUC_R_SQUARED 0.538, read-out: LUCIFERASE INFECTION ASSAY - IC50): 5.39 µM |
| CCOC(=O)C1=C(Nc2cccc(Cl)c2)S/C(=C\c2ccc(C)cc2)C1=O | > 8.25 µM | IC50 [1]: > 8.25 µM |
| COc1ccc(-c2cnn3ccc(NCc4cccnc4)nc23)cc1OC | 5.49 µM | IC50 (HEPG2TOX_HILL_SLOPE 1.45, HEPG2TOX_R_SQUARED 0.956, PBLUC_HILL_SLOPE 2.78, PBLUC_R_SQUARED 0.698, read-out: LUCIFERASE INFECTION ASSAY - IC50): 2.49 µM |
| CN1N=C2c3ccccc3CCC2C1c1ccc(C(F)(F)F)cc1 (centres undefined) | 1.66 µM | IC50 (PBLUC_HILL_SLOPE 1.95, PBLUC_R_SQUARED 0.843, read-out: LUCIFERASE INFECTION ASSAY - IC50): 0.537 µM |
| CCC(C)NC(=O)c1c(NC(=O)c2cc(F)c(F)cc2F)nc2ccc(C)cn12 (centres undefined) | 1.1 µM | IC50 [1]: 0.917 µM |
| Cc1nn2c3ccccc3n(C)c2c1C(=O)N/N=C/c1ccc([N+](=O)[O-])o1 | > 10 µM | IC50 (PBLUC_HILL_SLOPE 2.48, PBLUC_R_SQUARED 0.513, read-out: LUCIFERASE INFECTION ASSAY - IC50): 5.52 µM |
| COc1cc2c(C#N)c(N3CCc4ccccc4C3)nc(N)c2c(N)n1 | > 10 µM | IC50 [1]: > 10 µM |
| COc1cccc(-c2cc(=O)n(-c3ccc(F)cc3)[nH]2)c1 | > 11.6 µM | IC50 [1]: > 11.6 µM |
| CN(C)c1ccc(CNCC2(c3ccnc(-c4ccc(Cl)cc4)c3)CC2)cc1 | > 10 µM | IC50 (PBLUC_HILL_SLOPE 2.32, PBLUC_R_SQUARED 0.214, read-out: LUCIFERASE INFECTION ASSAY - IC50): 6.36 µM |
